Tests used:
[1] = target: GDP-bound KRAS wild-type protein (Homo sapiens, UniProt P01116); experiment: Binding to KRAS by surface plasmon resonance (SPR), dissociation constant KD
Outline: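 Compound binding is evaluated by SPR single-cycle kinetics, with concentrations added intermittently from low to high for 75 s each. Target surfaces carry GDP-loaded biotinylated Avi-RAS at about 100–300 RU, regenerated after each cycle; temperature 30°C. A 1:1 binding model gives KD.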

[2] = target: GDP-bound NRAS wild-type protein (Homo sapiens, UniProt P01111); experiment: Binding to NRAS by surface plasmon resonance (SPR), KD and KD ratio to KRAS
Outline: (§1)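 Captured GDP-RAS (~100–300 RU) was exposed to increasing compound concentrations, 75 s per step, in running buffer with 10 µM GDP, 10 mM MgCl2 and 4% DMSO at pH 7.4.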

[3] = target: HRAS wild-type protein (Homo sapiens, UniProt P01112); experiment: Binding to HRAS by surface plasmon resonance (SPR), KD and KD ratio to KRAS
Outline: as §1

[4] = test system: human lung cancer strain NCI-H441; format: cell-based
Outline: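 Step one: dispense the test compound in serial DMSO dilutions. Step three: add the reagent and measure […].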

[5] = ratio of KD for GDP-bound NRAS wild-type protein to KD for KRAS
[6] = ratio of KD for HRAS wild-type protein to KD for KRAS
[7] = Single Cycle Kinetics, 1:1 binding model
[8] = ratio of the KD value with respect to GDP-bound NRAS wild-type protein to the KD value with respect to KRAS
[9] = ratio of the KD value with respect to HRAS wild-type protein to the KD value with respect to KRAS

Chain of GDP-bound KRAS wild-type protein (P01116 1-188 isoform P01116-2): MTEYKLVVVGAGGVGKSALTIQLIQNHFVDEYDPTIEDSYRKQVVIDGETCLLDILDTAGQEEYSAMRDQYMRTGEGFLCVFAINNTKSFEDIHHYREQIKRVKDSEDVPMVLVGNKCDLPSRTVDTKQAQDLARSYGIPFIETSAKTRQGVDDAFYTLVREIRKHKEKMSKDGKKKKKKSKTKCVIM
Chain of GDP-bound NRAS wild-type protein (P01111 whole entry): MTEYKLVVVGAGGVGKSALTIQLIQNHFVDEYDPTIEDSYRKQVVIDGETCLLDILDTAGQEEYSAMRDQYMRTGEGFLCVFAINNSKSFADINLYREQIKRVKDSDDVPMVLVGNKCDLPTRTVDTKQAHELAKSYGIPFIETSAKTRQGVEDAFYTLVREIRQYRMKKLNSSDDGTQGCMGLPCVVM
Chain of HRAS wild-type protein (P01112 whole entry): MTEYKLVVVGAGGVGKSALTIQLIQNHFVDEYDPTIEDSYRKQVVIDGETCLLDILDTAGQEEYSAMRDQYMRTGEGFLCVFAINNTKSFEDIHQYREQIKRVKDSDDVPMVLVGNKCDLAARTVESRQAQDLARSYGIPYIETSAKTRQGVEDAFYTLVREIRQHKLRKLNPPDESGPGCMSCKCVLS

Row | Structure (SMILES) | Kd ([1]; 1:1 binding model) [nM] | NRAS /KRAS [2, 5] | HRAS /KRAS [3, 6] | IC50 [4] [nM] | Kd ([1]; Single Cycle Kinetics) [nM] | Kd [1, 7] [nM] | NRAS /KRAS [2, 8] | HRAS /KRAS [3, 9] | NRAS /KRAS ([2]; ratio of KD value for GDP-bound NRAS wild-type protein to KD value for KRAS (SPR)) | HRAS /KRAS ([3]; ratio of KD value for HRAS wild-type protein to KD value for KRAS (SPR))
1 | CCC[C@H]1C(=O)N[C@@H]([C@@H](C)CC)C(=O)N(C)CC(=O)N(C)[C@H]2C/C=C\CCN(C2=O)[C@@H](Cc2ccc(C)cc2)C(=O)N(C)CC(=O)N[C@@H](CCc2ccc(C(F)(F)F)c(OC)c2)C(=O)N2CC3(CC3)C[C@H]2C(=O)NC2(CC(C)(C)C2)C(=O)N(C)[C@@H](CC(C)C)C(=O)N(C)[C@H](C(=O)N(C)C)CC(=O)N1C [PP3013] | 0.53 | AA (a compound having 20 or more is denoted as AA) | B (a compound having 3 or more and less than 10 is denoted as B) | 29.7 | – | – | – | – | – | –
2 | CCO[C@@H]1C[C@H]2C(=O)NC3(CCC3)C(=O)N(C)[C@@H](C3CCCC3)C(=O)N(C)[C@H](C(=O)N3CCOCC3)CC(=O)N(C)[C@@H](CC(C)C)C(=O)N[C@@H]([C@@H](C)CC)C(=O)N(C)CC(=O)N(C)[C@H]3C[C@H]4C[C@H]4CN(C3=O)[C@@H](Cc3ccc(C(F)(F)F)cc3)C(=O)N(C)CC(=O)N[C@@H](CCc3cc(F)c(C(F)(F)F)c(F)c3)C(=O)N2C1 [PP0829] | – | B (a compound having 3 or more and less than 10 is denoted as B) | C (A compound having a KD ratio of 0.1 or more and less than 3 is denoted as C) | 4.4 | 0.081 | – | – | – | – | –
3 | CCO[C@@H]1C[C@H]2C(=O)NC3(CCC3)C(=O)N(C)[C@@H](C3CCCC3)C(=O)N(C)[C@H](C(=O)N(C)C)CC(=O)N(C)[C@@H](CC3CCCC3)C(=O)N[C@@H]([C@@H](C)CC)C(=O)N(C)CC(=O)N(C)[C@H]3CCCCN(C3=O)[C@@H](Cc3ccc(C(F)(F)F)cc3)C(=O)N(C)CC(=O)N[C@@H](CCc3cc(F)c(C(F)(F)F)c(F)c3)C(=O)N2C1 [PP0700] | – | – | – | 2.9 | – | 0.013 | C (A compound having a KD ratio of 0.1 or more and less than 3 is denoted as C) | B (a compound having 3 or more and less than 10 is denoted as B) | – | –
4 | CCO[C@@H]1C[C@H]2C(=O)NC3(CC(C)(C)C3)C(=O)N(C)[C@@H](C3CCCC3)C(=O)N(C)[C@H](C(=O)N(C)CC)CC(=O)N(C)[C@@H]([C@@H](C)OC)C(=O)N[C@@H]([C@@H](C)CC)C(=O)N(C3CC3)CC(=O)N(C)[C@H]3C/C=C\CCN(C3=O)[C@@H](Cc3ccc(C)cc3)C(=O)N(C)CC(=O)N[C@@H](CCc3ccc(C(F)(F)F)c(OC)c3)C(=O)N2C1 [PP3182] | 0.87 | A (a compound having 10 or more and less than 20 is denoted as A) | A (a compound having 10 or more and less than 20 is denoted as A) | 76.6 | – | – | – | – | – | –
5 | CC[C@H](C)[C@@H]1NC(=O)[C@H](CC(C)C)N(C)C(=O)C[C@@H](C(=O)N2CCOCC2)N(C)C(=O)[C@H](C2CCCC2)N(C)C(=O)C2(CCCC2)NC(=O)[C@@H]2CCCN2C(=O)[C@H](CCc2cc(F)c(C(F)(F)F)c(F)c2)NC(=O)CN(C)C(=O)[C@H](Cc2ccc(C(F)(F)F)cc2)N2CCCC[C@@H](C2=O)N(C)C(=O)[C@H](CC)N(C)C1=O [PP0551] | – | – | – | 401 | – | 38 | C (A compound having a KD ratio of 0.1 or more and less than 3 is denoted as C) | B (a compound having 3 or more and less than 10 is denoted as B) | – | –
6 | CC[C@H](C)[C@@H]1NC(=O)[C@H](CC)N(C)C(=O)C[C@@H](C(=O)N2CCOCC2)N(C)C(=O)[C@H](C2CCCC2)N(C)C(=O)C2(CCCC2)NC(=O)[C@@H]2CCCN2C(=O)[C@H](CCc2ccc(C(F)(F)F)c(Cl)c2)NC(=O)CN(C)C(=O)[C@H](Cc2ccc(F)cc2)N2CCCCC[C@@H](C2=O)N(C)C(=O)CN(C)C1=O [PP0959] | – | B (a compound having 3 or more and less than 10 is denoted as B) | B (a compound having 3 or more and less than 10 is denoted as B) | 156 | 0.39 | – | – | – | – | –
7 | CC[C@H](C)[C@@H]1NC(=O)[C@H](CC(C)C)N(C)C(=O)C[C@@H](C(=O)N(C)C)N(C)C(=O)[C@H](C2CCCC2)N(C)C(=O)C2(CCC2)NC(=O)[C@@H]2C[C@H](C)CN2C(=O)[C@H](CCc2ccc(C(F)(F)F)c(Cl)c2)NC(=O)CN(C)C(=O)[C@H](Cc2ccc(C)cc2)N2CC/C=C\C[C@@H](C2=O)N(C)C(=O)CN(C)C1=O [PP1852] | – | – | – | 6 | – | 0.071 | – | – | A (a compound having 10 or more and less than 20 is denoted as A) | B (a compound having 3 or more and less than 10 is denoted as B)
